Reference: patent US8357694B2, “Substituted 5,6-dihydro-6-phenylbenzo[F]isoquinolin-2-amine compounds” (ArQule, Inc., priority 2008, dated 2013)
Counter-ions that a name gives are not always drawn.

| SMILES | melting point |
| --- | --- |
| Brc1ccc([C@@H]2Cc3cnc(Nc4ccc(CCN5CCCCC5)cc4)nc3-c3ccccc32)cc1 (as salt: hydrochloride) [Example 103, (S)-6-(4-bromophenyl)-N-(4-(2-(piperidin-1-yl)ethyl)phenyl)-5,6-dihydrobenzo[h]quinazolin-2-amine hydrochloride salt] | 205 to 210 °C |
| CCCCN(C)CCc1ccc(Nc2ncc3c(n2)-c2ccccc2C(c2ccccc2C(F)(F)F)C3)cc1 (stereo not drawn) [Example 68, N-(4-(2-(butyl(methyl)amino)ethyl)phenyl)-6-(2-(trifluoromethyl)phenyl)-5,6-dihydrobenzo[h]quinazolin-2-amine] | 80 to 82 °C |
| COCCN1CCN(CCc2cccc(Nc3ncc4c(n3)-c3ccccc3[C@@H](c3ccccc3F)C4)c2)CC1 (as salt: hydrochloride) [Example 164, (S)-6-(2-fluorophenyl)-N-(3-(2-(4-(2-methoxyethyl)piperazin-1-yl)ethyl)phenyl)-5,6-dihydrobenzo[h]quinazolin-2-amine] | 148 to 150 °C |
| CC(C)(C)OC(=O)N1CCC[C@@H](Nc2ncc3c(n2)-c2ccccc2[C@@H](c2ccc(Cl)c(Cl)c2)C3)C1 | 85 to 87 °C |
| CN1CCN(CCc2ccc(Nc3ncc4c(n3)-c3ccccc3[C@H](c3ccc(F)c(F)c3)C4)cc2)CC1 (as salt: hydrochloride) [Example 88, (S)-6-(3,4-difluorophenyl)-N-(4-(2-(4-methylpiperazin-1-yl)ethyl)phenyl)-5,6-dihydrobenzo[h]quinazolin-2-amine hydrochloride] | 90 to 92 °C |
| COCCNCCc1cc(Nc2ncc3c(n2)-c2ccccc2[C@H](c2ccccc2F)C3)ccc1F (as salt: hydrochloride) [Example 173, (R)—N-(4-fluoro-3-(2-(2-methoxyethylamino)ethyl)phenyl)-6-(2-fluorophenyl)-5,6-dihydrobenzo[h]quinazolin-2-amine hydrochloride salt] | 131 to 132 °C |
| Brc1cccc(C2Cc3cnc(Nc4ccc(CCNCc5ccccc5)cc4)nc3-c3ccccc32)c1 (stereo not drawn) [Example 46, N-(4-(2-(benzylamino)ethyl)phenyl)-6-(3-bromophenyl)-5,6-dihydrobenzo[h]quinazolin-2-amine] | 98 to 100 °C |
| COCCN1CCN(CCc2ccc(Nc3ncc4c(n3)-c3ccccc3C(c3ccc(F)c(F)c3)C4)cc2)CC1 (stereo not drawn) [Example 59, 6-(3,4-difluorophenyl)-N-(4-(2-(4-(2-methoxyethyl)piperazin-1-yl)ethyl)phenyl)-5,6-dihydrobenzo[h]quinazolin-2-amine] | 267 to 270 °C |
| Brc1cccc(C2Cc3cnc(Nc4ccc(CCN5CCN(c6ccccc6)CC5)cc4)nc3-c3ccccc32)c1 (stereo not drawn) [Example 43, 6-(3-bromophenyl)-N-(4-(2-(4-phenylpiperazin-1-yl)ethyl)phenyl)-5,6-dihydrobenzo[h]quinazolin-2-amine] | 113 to 115 °C |
| Brc1cccc(C2Cc3cnc(Nc4ccc(CCNc5ccccc5)cc4)nc3-c3ccccc32)c1 (stereo not drawn) [Example 35, 6-(3-bromophenyl)-N-(4-(2-(phenylamino)ethyl)phenyl)-5,6-dihydrobenzo[h]quinazolin-2-amine] | 92 to 94 °C |
| COCCN1CCN(CCc2ccc(Nc3ncc4c(n3)-c3ccccc3[C@H](c3ccc(Cl)cc3)C4)cc2)CC1 (as salt: hydrochloride) [Example 113, (S)-6-(4-chlorophenyl)-N-(4-(2-(4-(2-methoxyethyl)piperazin-1-yl)ethyl)phenyl)-5,6-dihydrobenzo[α]quinazolin-2-amine hydrochloride] | 261 to 263 °C |
| CN(C)CCCNc1ncc2c(n1)-c1ccccc1[C@@H](c1ccc(Cl)c(Cl)c1)C2 [Example 12, (R)—N^1-(6-(3,4-dichlorophenyl)-5,6-dihydrobenzo[h]quinazolin-2-yl)-N^3,N^3-dimethylpropane-1,3-diamine] | 59 to 62 °C |
